# According to EP4549575A1 (priority 2023, dated 2025):
# “Also recorded” adds a separate entry of the source. Square brackets hold non-standard residues; d marks the D form. Ends that are not written are not given here. Peptide text beside a SMILES is read from it. * marks the point of attachment. hCys = N[C@@H](CCS)C(=O)O; βAla = NCCC(=O)O; CF3 = FC(F)(F)*
# What was measured:
# P. infestans = assay type: cell-based; settings: for PPI / PPI (%) ± Std. Dev.: 200 µM, P. infestans mycelium; for PPI: solid medium, linear vs cyclic peptides (Figure 8); for PPI (%) micelio: Ala-scan of Ac-LP32; for PPI (%) micelio / PPI (%) mycelium: P. infestans mycelium in vitro; for PPI (%) ± Std. Dev.: peptidomimetics; for PPI (%) mycelium: Ala-scan of Ac-LP20 and CP20-Met-Ala
# pronase [1] = assay: Stability towards proteolysis (pronase, LC-MS); assay type: in vitro ADME, Streptomyces griseus; settings: peptide 200 µM, protease 5 µg/mL, 37°C, pH 7.5; for stability against proteolysis: 0-2 h
# Procedure: The evaluation of the stability of CP20 and Ac-LP20 towards proteolysis was tested at a peptide concentration of 200 µM using pronase (commercially available mixture of proteases isolated from the extracellular fluid of Streptomyces griseus, 2.5 µg/mg). Another peptide was added to this analysis, namely LP20 (without N-terminal acetylation), as it is easier to synthesize and to also assess the influence of N-terminal acetylation on the stability of LP20. Each peptide was tested in the presence of the protease (5 µg/mL) at 37°C in a buffer solution (50 mM Tris, 10 mM CaCl2, 150 mM NaCl, 0.05 % (w/v) Brij 35, pH 7.5) and its stability monitored by liquid chromatography coupled to mass spectrometry (LC-MS) at different time intervals (t=0 min, 10 min, 30 min, 1 h, 2 h). To stop enzyme activity, a small amount of the solution (60 µL) was transferred to an HPLC vial containing 6 µL of a 10% TFA solution at these different time points.
# pronase [2] = assay: pronase (commercially available mixture of proteases isolated from the extracellular fluid of Streptomyces griseus, 2.5 µg/mg) in buffer solution (50 mM Tris, 10 mM CaCl2, 150 mM NaCl, 0.05 % (w/v) Br); settings: 37°C, up to 2 h
Compound,PPI (%) micelio (P. infestans),PPI (%) mycelium (P. infestans),other results
CC(C)C[C@H](NC(=O)[C@H](CCCNC(=N)N)NC(=O)CNC(=O)CCN)C(=O)N[C@@H](CCCNC(=N)N)C(=O)N[C@@H](Cc1c[nH]c2ccccc12)C(=O)N[C@@H](CC(C)C)C(=O)N[C@@H](CCCNC(=N)N)C(=O)N[C@H](C(N)=O)C(C)C [LP32] (H-[βAla]GRLRWLRV-NH2),,,PPI (P. infestans): 76.97%; time of total proteolysis of the peptide (pronase [1]): 10 min; stability against proteolysis (pronase [1]): low stability
"CC(=O)NCCC(=O)NCC(=O)N[C@@H](C)C(=O)N[C@@H](CC(C)C)C(=O)N[C@@H](CCCNC(=N)N)C(=O)N[C@@H](Cc1c[nH]c2ccccc12)C(=O)N[C@@H](CC(C)C)C(=O)N[C@@H](CCCNC(=N)N)C(=O)N[C@H](C(N)=O)C(C)C [Ac-LP32-Ala3, Ac-βA-GALRWLRV-CONH2] (Ac-[βAla]GALRWLRV-NH2)",58.78 ± 3.94%,,
"H2N-βA-RWM-hL-VYRR-CONH2 (H-[βAla]RWMXVYRR-NH2; not fully specified (residue 5); printed as H2N-βA-RWM-hL-VYRR-CONH2) [LR193, hydrazino-Leu analogue]",,,PPI (%) ± Std. Dev. (P. infestans): 79.35 ± 5.47 (b) %
"CC(=O)NCCC(=O)NCC(=O)N[C@@H](CCCNC(=N)N)C(=O)N[C@@H](CC(C)C)C(=O)N[C@@H](CCCNC(=N)N)C(=O)N[C@@H](Cc1c[nH]c2ccccc12)C(=O)N[C@@H](CC(C)C)C(=O)N[C@@H](C)C(=O)N[C@H](C(N)=O)C(C)C [Ac-LP32-Ala8, Ac-βA-GRLRWLAV-CONH2] (Ac-[βAla]GRLRWLAV-NH2)",17.56 ± 7.48%,,
"CSCC[C@H](NC(=O)[C@@H](Cc1c[nH]c2ccccc12)NC(=O)[C@@H](CCCNC(=N)N)NC(=O)CCN)C(=O)N[C@@H](CC(C)C)C(=O)N[C@H](C(=O)N[C@H](Cc1ccc(O)cc1)C(=O)N[C@@H](CCCNC(=N)N)C(=O)N[C@H](CCCNC(=N)N)C(N)=O)C(C)C [LR202, H2N-βA-(D)R-(D)W-MLV-(D)Y-R-(D)R-CONH2] (H-[βAla][dR][dW]MLV[dY]R[dR]-NH2)",,,PPI (%) ± Std. Dev. (P. infestans): 78.26 ± 0 (b) %
"CC(C)C[C@H](NC(=O)[C@H](CCSC(F)(F)F)NC(=O)[C@H](Cc1c[nH]c2ccccc12)NC(=O)[C@H](CCCNC(=N)N)NC(=O)CCN)C(=O)N[C@H](C(=O)N[C@@H](Cc1ccc(O)cc1)C(=O)N[C@@H](CCCNC(=N)N)C(=O)N[C@@H](CCCNC(=N)N)C(N)=O)C(C)C [LR131, H2N-βA-RW-MCF3-LVYRR-CONH2] (H-[βAla]RW[hCys](CF3)LVYRR-NH2)",,,PPI (%) ± Std. Dev. (P. infestans): 85.32 ± 5.19 (b) %
"CC(=O)NCCC(=O)N[C@@H](C)C(=O)N[C@@H](CCCNC(=N)N)C(=O)N[C@@H](CC(C)C)C(=O)N[C@@H](CCCNC(=N)N)C(=O)N[C@@H](Cc1c[nH]c2ccccc12)C(=O)N[C@@H](CC(C)C)C(=O)N[C@@H](CCCNC(=N)N)C(=O)N[C@H](C(N)=O)C(C)C [Ac-LP32-Ala2, Ac-βA-ARLRWLRV-CONH2] (Ac-[βAla]ARLRWLRV-NH2)",74.81 ± 3.63%,,
[βAla]GRLRWLRV [LP32],,,"cleaved bond (pronase [2]): Trp-Leu7, first_seen, immediately, after mixing protease with peptide solution; also recorded: Leu4-Arg5, 10 min; also recorded: Arg5-Trp, 10 min; also recorded: Leu7-Arg8, 10 min; also recorded: Arg8-Val, 10 min"
[βAla]RWMLVYRR [CP20],,,"cleaved bond (pronase [2]): Arg8-Arg9, 2 hours; also recorded: Met4-Leu, 2 hours"
"CC(=O)NCCC(=O)NCC(=O)N[C@@H](CCCNC(=N)N)C(=O)N[C@@H](C)C(=O)N[C@@H](CCCNC(=N)N)C(=O)N[C@@H](Cc1c[nH]c2ccccc12)C(=O)N[C@@H](CC(C)C)C(=O)N[C@@H](CCCNC(=N)N)C(=O)N[C@H](C(N)=O)C(C)C [Ac-LP32-Ala4, Ac-βA-GRARWLRV-CONH2] (Ac-[βAla]GRARWLRV-NH2)",56.49 ± 10.10%,,
"CC(=O)NCCC(=O)NCC(=O)N[C@@H](CCCNC(=N)N)C(=O)N[C@@H](CC(C)C)C(=O)N[C@@H](C)C(=O)N[C@@H](Cc1c[nH]c2ccccc12)C(=O)N[C@@H](CC(C)C)C(=O)N[C@@H](CCCNC(=N)N)C(=O)N[C@H](C(N)=O)C(C)C [Ac-LP32-Ala5, Ac-βA-GRLAWLRV-CONH2] (Ac-[βAla]GRLAWLRV-NH2)",40.46 ± 1.76%,,
"CSCC[C@H](NC(=O)[C@H](Cc1c[nH]c2ccccc12)NC(=O)[C@H](CCCNC(=N)N)NC(=O)CCNC(C)=O)C(=O)N[C@@H](CC(C)C)C(=O)N[C@H](C(=O)N[C@@H](Cc1ccc(O)cc1)C(=O)N[C@@H](C)C(=O)N[C@@H](CCCNC(=N)N)C(N)=O)C(C)C [Ac-LP20-Ala8, Ac-βA-RWMLVYAR-CONH2] (Ac-[βAla]RWMLVYAR-NH2)",,10.57 ± 9.49%,
"CC(=O)NCCC(=O)NCC(=O)N[C@@H](CCCNC(=N)N)C(=O)N[C@@H](CC(C)C)C(=O)N[C@@H](CCCNC(=N)N)C(=O)N[C@@H](Cc1c[nH]c2ccccc12)C(=O)N[C@@H](CC(C)C)C(=O)N[C@@H](CCCNC(=N)N)C(=O)N[C@@H](C)C(N)=O [Ac-LP32-Ala9, Ac-βA-GRLRWLRA-CONH2] (Ac-[βAla]GRLRWLRA-NH2)",19.85 ± 2.92%,,
"CC(=O)NCCC(=O)NCC(=O)N[C@@H](CCCNC(=N)N)C(=O)N[C@@H](CC(C)C)C(=O)N[C@@H](CCCNC(=N)N)C(=O)N[C@@H](Cc1c[nH]c2ccccc12)C(=O)N[C@@H](C)C(=O)N[C@@H](CCCNC(=N)N)C(=O)N[C@H](C(N)=O)C(C)C [Ac-LP32-Ala7, Ac-βA-GRLRWARV-CONH2] (Ac-[βAla]GRLRWARV-NH2)",59.29 ± 7.05%,,
"CSCC[C@H](NC(=O)[C@@H](Cc1c[nH]c2ccccc12)NC(=O)[C@@H](CCCNC(=N)N)NC(=O)CCN)C(=O)N[C@@H](CC(C)C)C(=O)N[C@H](C(=O)N[C@H](Cc1ccc(O)cc1)C(=O)N[C@@H](CCCNC(=N)N)C(=O)N[C@@H](CCCNC(=N)N)C(N)=O)C(C)C [LR206, H2N-βA-(D)R-(D)W-MLV-(D)Y-RR-CONH2] (H-[βAla][dR][dW]MLV[dY]RR-NH2)",,,PPI (%) ± Std. Dev. (P. infestans): 81.52 ± 5.47 (b) %
"CC(=O)NCCC(=O)NCC(=O)N[C@@H](CCCNC(=N)N)C(=O)N[C@@H](CC(C)C)C(=O)N[C@@H](CCCNC(=N)N)C(=O)N[C@@H](C)C(=O)N[C@@H](CC(C)C)C(=O)N[C@@H](CCCNC(=N)N)C(=O)N[C@H](C(N)=O)C(C)C [Ac-LP32-Ala6, Ac-βA-GRLRALRV-CONH2] (Ac-[βAla]GRLRALRV-NH2)",54.20 ± 4.31%,,
"CSCC[C@H](NC(=O)[C@H](Cc1c[nH]c2ccccc12)NC(=O)[C@H](CCCNC(=N)N)NC(=O)CCNC(C)=O)C(=O)N[C@@H](CC(C)C)C(=O)N[C@@H](C)C(=O)N[C@@H](Cc1ccc(O)cc1)C(=O)N[C@@H](CCCNC(=N)N)C(=O)N[C@@H](CCCNC(=N)N)C(N)=O [Ac-LP20-Ala6, Ac-βA-RWMLAYRR-CONH2] (Ac-[βAla]RWMLAYRR-NH2)",,62.2 ± 7.54%,
CSCC[C@H](NC(=O)[C@H](Cc1c[nH]c2ccccc12)NC(=O)[C@H](CCCNC(=N)N)NC(=O)CCN)C(=O)N[C@@H](CC(C)C)C(=O)N[C@H](C(=O)N[C@@H](Cc1ccc(O)cc1)C(=O)N[C@@H](CCCNC(=N)N)C(=O)N[C@@H](CCCNC(=N)N)C(N)=O)C(C)C [LP20] (H-[βAla]RWMLVYRR-NH2),,,PPI (P. infestans): 72.78%; time of total proteolysis of the peptide (pronase [1]): 10 min; stability against proteolysis (pronase [1]): Low stability
"CSCC[C@H](NC(=O)[C@H](Cc1c[nH]c2ccccc12)NC(=O)[C@H](CCCNC(=N)N)NC(=O)CCNC(C)=O)C(=O)N[C@@H](CC(C)C)C(=O)N[C@H](C(=O)N[C@@H](Cc1ccc(O)cc1)C(=O)N[C@@H](CCCNC(=N)N)C(=O)N[C@@H](C)C(N)=O)C(C)C [Ac-LP20-Ala9, Ac-βA-RWMLVYRA-CONH2] (Ac-[βAla]RWMLVYRA-NH2)",,10.57 ± 9.49%,
"CSCC[C@H](NC(=O)[C@H](Cc1c[nH]c2ccccc12)NC(=O)[C@H](CCCNC(=N)N)NC(=O)CCNC(C)=O)C(=O)N[C@@H](C)C(=O)N[C@H](C(=O)N[C@@H](Cc1ccc(O)cc1)C(=O)N[C@@H](CCCNC(=N)N)C(=O)N[C@@H](CCCNC(=N)N)C(N)=O)C(C)C [Ac-LP20-Ala5, Ac-βA-RWMAVYRR-CONH2] (Ac-[βAla]RWMAVYRR-NH2)",,70.73 ± 0%,
"CSCC[C@H](NC(=O)[C@H](Cc1c[nH]c2ccccc12)NC(=O)[C@H](C)NC(=O)CCNC(C)=O)C(=O)N[C@@H](CC(C)C)C(=O)N[C@H](C(=O)N[C@@H](Cc1ccc(O)cc1)C(=O)N[C@@H](CCCNC(=N)N)C(=O)N[C@@H](CCCNC(=N)N)C(N)=O)C(C)C [Ac-LP20-Ala2, Ac-βA-AWMLVYRR-CONH2] (Ac-[βAla]AWMLVYRR-NH2)",,38.75 ± 7.72%,
"CSCC[C@H](NC(=O)[C@H](Cc1c[nH]c2ccccc12)NC(=O)[C@H](CCCNC(=N)N)NC(=O)CCNC(C)=O)C(=O)N[C@@H](CC(C)C)C(=O)N[C@H](C(=O)N[C@@H](C)C(=O)N[C@@H](CCCNC(=N)N)C(=O)N[C@@H](CCCNC(=N)N)C(N)=O)C(C)C [Ac-LP20-Ala7, Ac-βA-RWMLVARR-CONH2] (Ac-[βAla]RWMLVARR-NH2)",,17.48 ± 12.34%,
"CSCC[C@H](NC(=O)[C@H](C)NC(=O)[C@H](CCCNC(=N)N)NC(=O)CCNC(C)=O)C(=O)N[C@@H](CC(C)C)C(=O)N[C@H](C(=O)N[C@@H](Cc1ccc(O)cc1)C(=O)N[C@@H](CCCNC(=N)N)C(=O)N[C@@H](CCCNC(=N)N)C(N)=O)C(C)C [Ac-LP20-Ala3, Ac-βA-RAMLVYRR-CONH2] (Ac-[βAla]RAMLVYRR-NH2)",,100 ± 0%,
